Key:
[1] = Mixing time until clear solution / until TSPP is dissolved
Protocol: With US sourced raw materials, deionized water and sorbitol were combined. TSPP was added and fully dissolved. Zinc chloride was then added.
With US sourced raw materials, deionized water and sorbitol were combined. TSPP and zinc chloride were then simultaneously added and fully dissolved.
With Montreal sourced raw materials, deionized water and sorbitol were combined. Zinc chloride, TSPP, DSPP, and saccharin were then simultaneously added and mixed.
Charged deionized water, sorbitol, and saccharin were mixed until dissolved. A 50% zinc chloride solution was added and mixed. […] TSPP was added and mixed. […] Charged DSPP was added. […] The mix time to get the TSPP into solution was 28 minutes.
A 50% zinc chloride solution was prepared. Water and sorbitol were added to the main mix tank followed by saccharin. Saccharin was allowed to fully dissolve before adding the zinc chloride premix. […] TSPP was then added and it took 70 minutes to fully dissolve.
Mix times for TSPP to go into solution were 30 minutes (25 KG) & 23 minutes (150 KG).

[2] = Visual observation of precipitate formation / clarity while making the oral rinse composition; assay type: physicochemical
Protocol: A pilot trial was conducted to determine how sorbitol was affecting precipitate. A deionized water/sorbitol solution was made up and added to an empty chamber. […] A second trial was done with sorbitol as a rinse first, and then water was added.

| precipitate on rinsing the container ([2]; sorbitol as a rinse first, then water added) | Structure (SMILES) | mix time to get the TSPP into solution ([1]; full pilot batch (150 KG), 50% zinc chloride solution) | time for TSPP to fully dissolve ([1]; full scale batch (800 KG), TSPP added after 50% zinc chloride premix) | dissolution time of TSPP ([1]; full scale batch (8000 KG), 62% zinc chloride solution, TSPP powder sifted through a screen) | mix time for TSPP to go into solution ([1]; pilot trial 25 KG, 62% zinc chloride solution) | mix time for TSPP to go into solution ([1]; pilot trial 150 KG, 62% zinc chloride solution) | mixing time until solution clear after TSPP addition ([1]; pilot trial, TSPP added after 50% zinc chloride solution) | precipitate on rinsing the container ([2]; deionized water/sorbitol solution added to empty chamber) |
| --- | --- | --- | --- | --- | --- | --- | --- | --- |
|  | O=P([O-])([O-])OP(=O)([O-])[O-].[Na+].[Na+].[Na+].[Na+] [TSPP, tetrasodium pyrophosphate] | 28 min | 70 min | about 30 minutes | 30 min | 23 min | 50 min |  |
| No precipitate formed | OC[C@@H](O)[C@@H](O)[C@H](O)[C@@H](O)CO [sorbitol] |  |  |  |  |  |  | No precipitate formed, but solution was slightly cloudy |

From patent publication US20190117535A1, “ORAL RINSE” (Church & Dwight Co., Inc., priority 2017, published 2019)
